Test systems include CAKI-1; HCT-116; HOP-62; HT-29; IGROV-1; K562; KM12; Malme-3M; NCI-H226; OVCAR-3; OVCAR-5; RXF 393; SF-268; SK-MEL-28; SK-MEL-2; SK-MEL-5; SK-OV-3; TK-10; UACC-257; UO-31.
What all share (assay): NCI-60 cell line screen, 48 h

Each structure is given as a SMILES string.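 Test compounds were applied to cells in 96-well plates for 48 hours at 5 doses. The concentration for 50% growth inhibition is given as GI50.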 The source made the active and inactive calls. Cut-off read from the data, not from the text of the source: active = GI50 up to about 1.1 µM and inactive = higher. Some results are limits rather than exact numbers.

For `Clc1ccc(CCc2ccncn2)c(Cl)c1`, the GI50 is 50.2 µM (inactive) in the test on CAKI-1; 52.5 µM (inactive) with HCT-116; > 100 µM (inactive) in the test on HOP-62; > 100 µM (inactive) with HT-29; > 100 µM (inactive) in the test on IGROV-1; 63.8 µM (inactive) with K562. Moreover, the GI50 in the test with KM12 was 63 µM (inactive); in the test with Malme-3M, 58.9 µM (inactive); with NCI-H226, 60.5 µM (inactive); in the test on OVCAR-3 it was 39.5 µM (inactive); in the test with OVCAR-5, > 100 µM (inactive); in the test with RXF 393 it was 27 µM (inactive). Besides, the GI50 with SF-268 is 77.3 µM (inactive); in the test with SK-MEL-28, > 100 µM (inactive); in the test on SK-MEL-2, > 100 µM (inactive); in the test with SK-MEL-5 it was 19.5 µM (inactive); in the test with SK-OV-3 it was > 100 µM (inactive); in the test with TK-10, > 100 µM (inactive). Also, the results for the GI50 with UACC-257 and in the test on UO-31 were 38.1 µM (inactive) and 38.5 µM (inactive), respectively.
In the case of `O=C(Nc1nc2ncn(CCNCc3ccccc3)c2c(=O)[nH]1)c1ccccc1`, the GI50 with CAKI-1, in the test with HCT-116, in the test on HOP-62, with HT-29, in the test on IGROV-1 and with K562 was > 100 µM (inactive) each time. Besides, the GI50 is > 100 µM (inactive) in the test on KM12; > 100 µM (inactive) in the test with Malme-3M; > 100 µM (inactive) in the test with NCI-H226; > 100 µM (inactive) in the test on OVCAR-3; > 100 µM (inactive) in the test with OVCAR-5; 91 µM (inactive) with RXF 393. Further, the GI50 in the test with SF-268 is 63.8 µM (inactive); in the test on SK-MEL-28 it was > 100 µM (inactive); in the test on SK-MEL-2, > 100 µM (inactive); with SK-MEL-5, > 100 µM (inactive); in the test with SK-OV-3 it was > 100 µM (inactive); in the test on TK-10 it was > 100 µM (inactive). Further, the values for the GI50 with UACC-257 and in the test with UO-31 were > 100 µM (inactive) and 50.8 µM (inactive), respectively.
As to `CC1=NN(C(=O)c2ccc(Cl)cc2)C(=O)C1/N=N/c1ccc(S(=O)(=O)Nc2ncccn2)cc1` (centres undefined), the GI50 in the test on CAKI-1, with HCT-116, in the test on HOP-62, in the test with HT-29, with IGROV-1 and with K562 was > 100 µM (inactive) throughout. Besides, the GI50 in the test on KM12, in the test on Malme-3M, in the test on NCI-H226, in the test with OVCAR-3, in the test with OVCAR-5 and in the test on RXF 393 was > 100 µM (inactive) in each case. Further, the GI50 with SF-268, in the test on SK-MEL-28, in the test with SK-MEL-2, in the test on SK-MEL-5, in the test with SK-OV-3 and with TK-10 was > 100 µM (inactive) each time. Also, the GI50 in the test on UACC-257 and with UO-31 was > 100 µM (inactive) in each case.
With `CN1C(=O)CN2C(Cl)(Cl)C2(c2ccccc2)c2cc(Cl)ccc21` (centres undefined), the GI50 with CAKI-1 was > 100 µM (inactive); in the test on HCT-116, 65.3 µM (inactive); in the test on HOP-62, > 100 µM (inactive); in the test with HT-29 it was 67.5 µM (inactive); in the test on IGROV-1, > 100 µM (inactive); with K562, 69.2 µM (inactive). Further, the GI50 in the test on KM12 is 56.5 µM (inactive); in the test on Malme-3M, > 100 µM (inactive); in the test on NCI-H226, > 100 µM (inactive); in the test with OVCAR-3, > 100 µM (inactive); in the test with OVCAR-5, > 100 µM (inactive); with RXF 393, > 100 µM (inactive). Further, the GI50 in the test on SF-268, in the test with SK-MEL-28, in the test with SK-MEL-2, in the test with SK-MEL-5, with SK-OV-3 and in the test on TK-10 was > 100 µM (inactive) in each case. For the same compound, the values for the GI50 in the test on UACC-257 and with UO-31 were 55.1 µM (inactive) and > 100 µM (inactive), respectively.
Take `CC12CC3(C)CC(C)(C1)CC(N=[N+]=[N-])(C2)C3`: the GI50 in the test on CAKI-1, with HCT-116, with HOP-62, in the test on HT-29, in the test on IGROV-1 and in the test on K562 was > 100 µM (inactive) in each case. Besides, the GI50 in the test with KM12, in the test with Malme-3M, with NCI-H226, in the test with OVCAR-3, in the test with OVCAR-5 and in the test on RXF 393 was > 100 µM (inactive) in each case. The GI50 in the test with SF-268, in the test with SK-MEL-28, in the test with SK-MEL-2, with SK-MEL-5, in the test with SK-OV-3 and in the test with TK-10 was > 100 µM (inactive) throughout. For the same compound, the GI50 in the test on UACC-257 and with UO-31 was > 100 µM (inactive) each time.
Take `Cc1c(N2C(=O)CS(=O)(=O)C2c2cccc(Oc3ccccc3)c2)c(=O)n(-c2ccccc2)n1C` (centres undefined): the GI50 was 42.3 µM (inactive) in the test on CAKI-1; 26.7 µM (inactive) with HCT-116; 33.9 µM (inactive) with HOP-62; 34.4 µM (inactive) with HT-29; 46.9 µM (inactive) with IGROV-1; 24.3 µM (inactive) in the test with K562. Moreover, the GI50 in the test with KM12 is 19.4 µM (inactive); in the test on Malme-3M it was 0.512 µM (active); in the test with NCI-H226 it was 42.6 µM (inactive); in the test with OVCAR-3, 26.8 µM (inactive); in the test with OVCAR-5, > 100 µM (inactive); in the test with RXF 393 it was 21.6 µM (inactive). For the same compound, the GI50 was 59.3 µM (inactive) in the test with SF-268; > 100 µM (inactive) in the test on SK-MEL-28; 72.9 µM (inactive) in the test on SK-MEL-2; 35.6 µM (inactive) in the test on SK-MEL-5; 61.8 µM (inactive) with SK-OV-3; 11.2 µM (inactive) in the test with TK-10. Also, the GI50 was > 100 µM (inactive) in the test with UACC-257 and 62.7 µM (inactive) with UO-31.
As to `S=c1nc(Nc2ccc(Br)cc2)c2c3c(sc2[nH]1)CN(N1CCc2c(sc4[nH]c(=S)nc(Nc5ccc(Br)cc5)c24)C1)CC3`, the GI50 in the test on CAKI-1 is > 50 µM (inactive); in the test with HCT-116 it was 12.3 µM (inactive); in the test with HOP-62, 17.5 µM (inactive); in the test on HT-29 it was 15.5 µM (inactive); with IGROV-1, 26.2 µM (inactive); in the test on K562, 11.1 µM (inactive). Besides, the GI50 is 21.6 µM (inactive) in the test with KM12; 44.1 µM (inactive) in the test on Malme-3M; 20.8 µM (inactive) in the test with NCI-H226; 25.1 µM (inactive) in the test on OVCAR-3; 16 µM (inactive) in the test on OVCAR-5; 10.2 µM (inactive) in the test on RXF 393. Besides, the GI50 in the test on SF-268 was 33.7 µM (inactive); with SK-MEL-28, 11.6 µM (inactive); with SK-MEL-2, 14.9 µM (inactive); in the test with SK-MEL-5, 12 µM (inactive); in the test with SK-OV-3 it was > 50 µM (inactive); with TK-10, > 50 µM (inactive). Also, the GI50 in the test with UACC-257 is 28.6 µM (inactive); in the test with UO-31, 20.1 µM (inactive).
For `S=c1sc2cscc2s1`, the GI50 was 16.8 µM (inactive) with CAKI-1; 19.5 µM (inactive) in the test with HCT-116; 32.8 µM (inactive) in the test with HOP-62; 44.1 µM (inactive) in the test on HT-29; 32.2 µM (inactive) in the test on IGROV-1; 42.6 µM (inactive) with K562. The GI50 was 17.6 µM (inactive) in the test with KM12; 12.6 µM (inactive) in the test with Malme-3M; 15.5 µM (inactive) in the test on NCI-H226; 19.5 µM (inactive) in the test on OVCAR-3; 69.2 µM (inactive) in the test with OVCAR-5; 35.2 µM (inactive) in the test on RXF 393. In addition, the GI50 was 31.4 µM (inactive) in the test with SF-268; 21.9 µM (inactive) in the test with SK-MEL-28; 38 µM (inactive) with SK-MEL-2; 27.9 µM (inactive) with SK-MEL-5; 27.5 µM (inactive) in the test with SK-OV-3; 23 µM (inactive) with TK-10. The values for the GI50 with UACC-257 and in the test on UO-31 were 22.3 µM (inactive) and 19.1 µM (inactive), respectively.
For the compound `Cc1cc(C)c2c(n1)S(=O)(=O)N(CCCN1CCN(c3cccc(C(F)(F)F)c3)CC1)C(C(=O)c1ccccc1)=C2O`, the GI50 is 2.79 µM (inactive) in the test with CAKI-1; 4.38 µM (inactive) with HCT-116; 8.38 µM (inactive) with HOP-62; 5.22 µM (inactive) in the test on HT-29; 5.66 µM (inactive) with IGROV-1; 3.69 µM (inactive) in the test with K562. The GI50 in the test with KM12 was 5.02 µM (inactive); in the test on Malme-3M it was 18.4 µM (inactive); with NCI-H226 it was 1.03 µM (active); with OVCAR-3, 4.18 µM (inactive); with OVCAR-5, 7.36 µM (inactive); in the test with RXF 393, 5.73 µM (inactive). For the same compound, the GI50 is 8.51 µM (inactive) in the test on SF-268; 9.64 µM (inactive) in the test with SK-MEL-28; 17.3 µM (inactive) in the test on SK-MEL-2; 2.93 µM (inactive) with SK-MEL-5; 20 µM (inactive) in the test on SK-OV-3; 10.5 µM (inactive) in the test on TK-10. Besides, the GI50 in the test with UACC-257 was 5.66 µM (inactive); with UO-31, 5.42 µM (inactive).
For the compound `CN(C)C(=S)/N=c1\ss/c(=N\S(=O)(=O)c2ccccc2)n1-c1ccccc1`, the GI50 in the test with CAKI-1 was > 100 µM (inactive); in the test on HOP-62 it was 22.9 µM (inactive); in the test on HT-29, 0.0522 µM (active); in the test on IGROV-1, 38 µM (inactive); in the test on K562, 0.953 µM (active); in the test on KM12, 0.217 µM (active). Further, the GI50 was 30.1 µM (inactive) with Malme-3M; 0.458 µM (active) in the test with NCI-H226; 6.4 µM (inactive) in the test with OVCAR-3; > 100 µM (inactive) with OVCAR-5; 57.5 µM (inactive) in the test with RXF 393; 38.9 µM (inactive) in the test with SF-268. In addition, the GI50 with SK-MEL-28 was 63.7 µM (inactive); with SK-MEL-2 it was 11.5 µM (inactive); in the test on SK-MEL-5, 0.0653 µM (active); in the test with SK-OV-3, 89.7 µM (inactive); in the test with TK-10, 40.1 µM (inactive); in the test with UACC-257, 16.9 µM (inactive). In addition, the GI50 in the test on UO-31 is 22 µM (inactive).

The record behind these values is ChEMBL document CHEMBL1201862, “PubChem BioAssay data set” (2004).
